According to ChEMBL document CHEMBL5113408, “Design, synthesis and antitumour activity of novel 5(6)-amino-benzimidazolequinones containing a fused morpholine” (Eur J Med Chem, 2022):
The source made the active and inactive calls. No cut-off for these calls is given here.

Tests used:
HGC-27 [1] = test: Induction of cell cycle arrest in human HGC-27 cells assessed as decrease in p-cdc25c level at 1 to 4 uM by Western blot analysis; type: functional, cell-based; conditions: dose 1-4 µM
MGC-803 [2] = test: Induction of DNA damage in human MGC-803 cells assessed as increase in p-ATM generation incubated for 48 hrs by Western blot analysis; type: functional, cell-based; conditions: DDE = dose-dependent effect
MGC-803 [3] = test: Induction of apoptosis in human MGC-803 cells incubated for 48 hrs by Annexin V-FITC and PI staining based flow cytometry analysis; type: functional
HGC-27 [4] = test: Induction of cell cycle arrest in human HGC-27 cells assessed as accumulation of cells at G2/M phase at 1 uM incubated for 36 hrs by PI staining based flow cytometry analysis (reference value: 26.2%); type: functional
[5] = Toxicity in BALB/c mouse xenografted with human MGC-803 cells assessed as effect on uric acid level at 10 to 20 mg/kg, ip administered once every two days; type: organism-based; conditions: in vivo, dose 10-20 mg/kg
HGC-27 [6] = test: Induction of apoptosis in human HGC-27 cells incubated for 48 hrs in presence of NAC by Annexin V-FITC and PI staining based flow cytometry analysis; type: functional
HGC-27 [7] = test: Antiproliferative activity against human HGC-27 cells assessed as inhibition of cell growth incubated for 24 to 72 hrs by SRB assay; type: functional, cell-based; conditions: dose 0.25-8 µM, time 24-72 hrs, DDE = dose-dependent effect
MGC-803 [8] = test: Antitumor activity against human MGC-803 cells xenografted with BALB/c mouse assessed as atrophied cells at 10 to 20 mg/kg, ip administered once every two days; type: functional, organism-based; conditions: dose 10-20 mg/kg
HGC-27 [9] = test: Induction of apoptosis in human HGC-27 cells assessed as increase in cleaved caspase 3 protein expression level at 1 to 4 uM incubated for 48 hrs by Western blot analysis; type: functional, cell-based; conditions: dose 1-4 µM
MGC-803 [10] = test: Induction of cell cycle arrest in human MGC-803 cells assessed as accumulation of cells at S phase at 4 uM incubated for 36 hrs by PI staining based flow cytometry analysis (reference value: 20.5%); type: functional
HeLa = test: Antiproliferative activity against human HeLa cells assessed as inhibition of cell growth by SRB assay; type: functional, cell-based
MGC-803 [11] = test: Induction of cell cycle arrest in human MGC-803 cells assessed as accumulation of cells at G2/M phase at 2 uM incubated for 36 hrs by PI staining based flow cytometry analysis (reference value: 20.5%); type: functional
MCF7 = test: Antiproliferative activity against human MCF7 cells assessed as inhibition of cell growth by SRB assay; type: functional, cell-based
HGC-27 [12] = test: Induction of cell cycle arrest in human HGC-27 cells assessed as accumulation of cells at S phase at 2 uM incubated for 36 hrs by PI staining based flow cytometry analysis (reference value: 8.87%); type: functional
[13] = Toxicity in BALB/c mouse xenografted with human MGC-803 cells assessed as effect on AST level at 10 to 20 mg/kg, ip administered once every two days; type: organism-based; conditions: in vivo, dose 10-20 mg/kg
MGC-803 [14] = test: Induction of cell cycle arrest in human MGC-803 cells assessed as accumulation of cells at S phase at 1 uM incubated for 36 hrs by PI staining based flow cytometry analysis (reference value: 20.5%); type: functional
MGC-803 [15] = test: Induction of apoptosis in human MGC-803 cells incubated for 48 hrs in presence of NAC by Annexin V-FITC and PI staining based flow cytometry analysis; type: functional
MGC-803 [16] = test: Induction of apoptosis in human MGC-803 cells assessed as increase in cleaved caspase 9 protein expression level at 1 to 4 uM incubated for 48 hrs by Western blot analysis; type: functional, cell-based; conditions: dose 1-4 µM
MGC-803 [17] = test: Induction of apoptosis in human MGC-803 cells assessed as decrease in caspase 9 protein expression level at 1 to 4 uM incubated for 48 hrs by Western blot analysis; type: functional, cell-based; conditions: dose 1-4 µM
MGC-803 [18] = test: Activation of ROS/JNK signalling in human MGC-803 cells assessed as increase in p-MKK4 level by Western blot analysis; type: cell-based; conditions: filed as activator, dose 1-4 µM, DDE = dose-dependent effect

**Q.** What does the source list for `Cc1ccc(NC2=CC(=O)c3nc4n(c3C2=O)[C@H]2OC[C@@H](O)[C@H]2OC4)cc1C`?
**A.** Activity (HGC-27 [1]): Active; Activity (MGC-803 [2]): Dde; Activity (MGC-803 [3]): 55.4%; Activity (HGC-27 [4]): 28.8%; Activity [5]: Non-Toxic; Activity (HGC-27 [6]): 1.4%; Activity (HGC-27 [7]): Dde; Activity (MGC-803 [8]): Active; Activity (HGC-27 [9]): Active; Activity (MGC-803 [10]): 34.1%; IC50 (HeLa): 2.69 µM; Activity (MGC-803 [11]): 24%; IC50 (MCF7): 2.08 µM; Activity (HGC-27 [12]): 10.7%; Activity [13]: Non-Toxic; Activity (MGC-803 [14]): 35.4%; Activity (MGC-803 [15]): 9.29%; Activity (MGC-803 [16]): Active; Activity (MGC-803 [17]): Active; Activity (MGC-803 [18]): Dde
